pIC50: −log10 of the molar value.
Experiments:
Type in all cases: biochemical
CETP [1] = molecular target: T1, CETP (Homo sapiens (Human), UniProt P11597); assay: RTA assay, CETP-catalyzed CE and TG transfer, recombinant CETP (2% human serum)
Experimental: (§1) In Vitro Radioactive Assays of CETP-Catalyzed CE and TG Transfer (RTA Assay)
(§2) Reagents and sources are: [3H] cholesteryl oleate (GE #TRK.886), [3H] Triolein (Perkin-Elmer NET-431), Butylated hydroxyl toluene (Aldrich, #D4740-4), DOPC (Sigma, # P6354), Sodium Bromide (Fisher scientific #S255-500), PEG 8000 (Fisher, #BP233-1), and human HDL (Intracel Corp #RP-036).
(§3) An in vitro assay for determining IC50's to identify compounds that inhibit CETP transfer activity is performed based on a modification of a published method (Morton and Zilversmit, (1981) A plasma inhibitor of triglyceride and cholesteryl ester transfer activities, J. Biol. Chem. 256(23), 11992-11995). The ability of inhibitors to alter CETP activity is performed using two different assays: one using recombinant CETP and one using an endogenous plasma source of CETP. Both assays measure the transfer of [3H] cholesteryl oleate or [3H] triolein from exogenous LDL to HDL.
(§4) Radiolabeled donor particles are generated by first combining 100 μl of 200 μM butylated hydroxyl toluene in CHCl3, 216 μL of 21.57 mM DOPC in EtOH, and either 500 μCi [3H]-triolein (Perkin Elmer #NET-431) or 500 μCi [3H]-cholesteryl oleate (GE #TRK886) in a glass tube. Reagents are mixed, dried under nitrogen, and then resuspended in 2 mL of 50 mM Tris, 27 μM EDTA at pH 7.4. After a brief vortex, the solution is sonicated until clear and mixed with 20 mL of fresh human serum. The mixture is incubated overnight at 37° C. The [3H] labeled LDL substrate is separated at 1.063 g/ml density by sequential ultracentrifugal flotation in NaBr according to the method by (Havel, Eder et al. 1955; Chapman, Goldstein et al. 1981). Once isolated the particles are dialyzed 3× in CETP buffer (50 mM Tris, pH 7.4, 100 mM NaCl, 1 mM EDTA). Human HDL is purchased from Intracel and used as the acceptor particles.
(§5) Transfer assays are performed in a 96-well v-bottom polypropylene plate. For the RTA using recombinant CETP (2% RTA), an assay cocktail is prepared with the final concentrations 128 μg/mL HDL, 20 nM rCETP, 2% human serum, and 1×CETP buffer. 1 μL of each test compound diluted in DMSO is added to 47 μL of assay cocktail per well and incubated at 37° C. for 1 hour. To initiate the transfer reaction, 2 μL radiolabeled LDL is added. After an additional 60 min of incubation at 37° C., the transfer action is terminated by precipitation of LDL with an equal volume of 20% W/V PEG 8000. The plates are centrifuged at 2000 rpm for 30 minutes at 4° C. A 40 μL aliquot of the HDL-containing supernatant is transferred to a Packard Optiplate™ with 200 μL of MicroScint™ 20. After mixing, plates are counted by liquid scintillation. Counts present in the supernatant for blanks (wells containing only HDL acceptor, CETP buffer and DMSO) are subtracted from those containing test compounds and used to correct for non-specific transfer.
Comparison of the counts of samples with inhibitors to an uninhibited (DMSO only) positive control yield a percent inhibition. A plot of percent inhibition vs. log of inhibitor concentration, fit to a Sigmoidal 4 parameter equation is used to calculate IC50.
Target sequence in this assay (P11597 18-493 limits assumed): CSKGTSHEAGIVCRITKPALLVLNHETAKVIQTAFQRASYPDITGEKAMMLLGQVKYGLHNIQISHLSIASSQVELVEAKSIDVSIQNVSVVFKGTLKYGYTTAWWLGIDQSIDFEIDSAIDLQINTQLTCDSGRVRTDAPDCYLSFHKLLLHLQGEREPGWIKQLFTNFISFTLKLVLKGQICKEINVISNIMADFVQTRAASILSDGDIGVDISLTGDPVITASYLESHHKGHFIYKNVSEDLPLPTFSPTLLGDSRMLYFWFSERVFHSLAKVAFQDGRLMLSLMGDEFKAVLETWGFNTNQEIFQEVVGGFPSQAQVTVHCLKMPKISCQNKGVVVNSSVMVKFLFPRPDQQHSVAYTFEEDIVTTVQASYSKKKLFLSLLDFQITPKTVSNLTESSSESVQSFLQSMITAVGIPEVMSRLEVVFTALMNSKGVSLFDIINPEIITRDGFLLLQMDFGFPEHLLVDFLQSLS

CETP [2] = molecular target: T1, CETP; assay: Scintillation Proximity Assay (SPA) for CETP activity
Experimental: Protocol: Scintillation Proximity Assay (SPA) for CETP Activity
First, low density lipoprotein (LDL) (Meridian) was biotinylated by incubating LDL with biotin for 1 hour on ice, after which it was dialyzed to remove free biotin. Then compounds at varying concentrations were incubated with 15 nM CETP (reagent production group, In Vitro Pharmacology, MRL Rahway) and 50 ug/ml of the biotinylated LDL in 50 mM HEPES, 150 mM NaCl, pH 7.4, for 1 hour at 37° C. The reaction was started by adding 3H-cholesterol ester high density lipoprotein (HDL) (American Radiochemicals Corp) at a concentration of ˜0.6 nM. The reaction proceeded for 2 hours at 37° C., after which time it was quenched by the addition of 12% acetic acid. PVT streptavadin-coated scintillation proximity beads, which had been brought to room temperature, were then added at a concentration of 4 mg/ml. The assay was then mixed and counted after one half hour in a Microbeta plate reader.
Target sequence in this assay (P11597 18-493): as the sequence (P11597 18-493 limits assumed) above

[3] = molecular target: endogenous CETP from serum (Homo sapiens (Human), UniProt P11597); assay: RTA assay using endogenous CETP from serum (95% human serum); conditions: RTA in 95% human serum, Table 2
Experimental: as §1, §2, §3, §4
as §5, with “Counts present in the supernatant for blanks (wells containing only HDL acceptor, CETP buffer and DMSO) are subtracted from those containing test compounds and used to correct for non-specific transfer.” left out

Chain of endogenous CETP from serum (P11597 18-493 limits assumed): as above

Row | Structure (SMILES) | pIC50 (CETP [1]) | pIC50 (CETP [2]; Table 1, read-out: IC50) | also measured
1 | O[C@H](CN1c2ccccc2N(Cc2cccc(OC(F)(F)F)c2)C[C@H]1c1ccccc1)C(F)(F)F [Example 1, (R)-3-((R)-4-(3-trifluoromethoxy)-2-phenyl-3,4-dihydroquinoxalin-1(2H)-yl)-1,1,1-trifluoropropan-2-ol] | 7.72 |  | 
2 | O[C@@H](CN1c2ccccc2N(Cc2cccc(OC(F)(F)F)c2)C[C@H]1c1ccccc1)C(F)(F)F [Example 2, (S)-3-((R)-4-(3-trifluoromethoxy)-2-phenyl-3,4-dihydro-quinoxalin-1(2H)-yl)-1,1,1-trifluoro-propan-2-ol] | 5.87 |  | 
3 | O[C@H](CN1c2ccccc2N(Cc2cc(C(F)(F)F)cc(C(F)(F)F)c2)C[C@H]1c1ccccc1)C(F)(F)F [Example 3] | 7.13 |  | 
4 | O[C@H](CN1c2ccccc2N(Cc2cccc(OC(F)(F)C(F)F)c2)C[C@H]1c1ccccc1)C(F)(F)F [Example 4, (R)-1,1,1-trifluoro-3-((R)-2-phenyl-4-(3-(1,1,2,2-tetrafluoroethoxy)benzyl)-3,4-dihydroquinoxalin-1(2H)-yl)-propan-2-ol] | 6.95 |  | 
5 | O[C@H](CN1c2ccccc2N(Cc2cc(OC(F)(F)F)ccc2F)C[C@H]1c1ccccc1)C(F)(F)F [Example 5, (R)-1,1,1-trifluoro-3-((R)-4-(2-fluoro-5-(trifluoromethoxy)benzyl)-2-phenyl-3,4-dihydroquinoxalin-1(2H)-yl)-propan-2-ol] | 7.96 |  | 
6 | CCc1cc(CN2C[C@@H](c3ccccc3)N(C[C@@H](O)C(F)(F)F)c3ccccc32)ccc1Cl [Example 6, (R)-3-((R)-4-(4-chloro-3-ethylbenzyl)-2-phenyl-3,4-dihydroquinoxalin-1(2H)-yl)-1,1,1-trifluoropropan-2-ol] | 7.52 |  | 
7 | O[C@H](CN1c2ccccc2N(Cc2cccc(F)c2)C[C@H]1c1ccccc1)C(F)(F)F [Example 7, (R)-3-((R)-4-(3-fluorobenzyl)-2-phenyl-3,4-dihydroquinoxalin-1(2H)-yl)-1,1,1-trifluoropropan-2-ol] | 6.96 |  | 
8 | CCOc1cccc(CN2C[C@@H](c3ccccc3)N(C[C@@H](O)C(F)(F)F)c3ccccc32)c1 [Example 8, (R)-3-((R)-4-(3-ethoxybenzyl)-2-phenyl-3,4-dihydroquinoxalin-1(2H)-yl)-1,1,1-trifluoropropan-2-ol] | 6.52 |  | 
9 | O[C@H](CN1c2ccccc2N(Cc2cccc(C(F)(F)F)c2)C[C@H]1c1ccccc1)C(F)(F)F [Example 9, (R)-3-((R)-4-(3-trifluoromethylbenzyl)-2-phenyl-3,4-dihydroquinoxalin-1(2H)-yl)-1,1,1-trifluoropropan-2-ol] | 7.33 |  | 
10 | O[C@H](CN1c2ccccc2N(Cc2cccc(OC(F)(F)F)c2)C[C@H]1c1ccccc1)C(F)(F)F [Example 17, (R)-3-((R)-4-(3-trifluoromethoxy)-2-phenyl-3,4-dihydroquinoxalin-1(2H)-yl)-1,1,1-trifluoro-propan-2-ol] | 7.47 |  | 
11 | CCc1cc(CN2C[C@@H](c3cccc(C(F)(F)F)c3)N(C[C@@H](O)C(F)(F)F)c3ccccc32)ccc1Cl [Example 42, (2R)-3-(4-(4-chloro-3-ethylbenzyl)-2-(3-(trifluoromethyl)phenyl)-3,4-dihydroquinoxalin-1(2H)-yl)-1,1,1-trifluoropropan-2-ol] |  | 7.35 | 
12 | Cc1ccc(C(F)(F)F)cc1CN1C[C@@H](c2cccc(C(F)(F)F)c2)N(C[C@@H](O)C(F)(F)F)c2ccccc21 [Example 43, (2R)-1,1,1-trifluoro-3-(4-(2-methyl-5-(trifluoromethyl)benzyl)-2-(3-(trifluoromethyl)phenyl)-3,4-dihydroquinoxalin-1(2H)-yl)propan-2-ol] |  | 6.57 | 
13 | Cc1cccc(CN2C[C@@H](c3cccc(C(F)(F)F)c3)N(C[C@@H](O)C(F)(F)F)c3ccccc32)n1 [Example 44] |  | 6.34 | 
14 | O[C@H](CN1c2ccccc2N(Cc2cccc(OC(F)(F)F)c2)C[C@H]1c1ccc(Cl)cc1)C(F)(F)F [Example 49] |  | 7.70 | 
15 | COc1cc2ccc([C@@H]3CN(Cc4cccc(OC(F)(F)F)c4)c4ccccc4N3C[C@@H](O)C(F)(F)F)cc2cc1OC [Example 50] |  | 6.71 | 
16 | O[C@H](CN1c2ccccc2N(Cc2cccc(OC(F)(F)F)c2)C[C@H]1c1ccc2c(c1)OCCO2)C(F)(F)F [Example 51] |  | 6.68 | 

Row | Structure (SMILES) | pIC50 (CETP [1]) | pIC50 (CETP [2]; Table 1, read-out: IC50) | also measured
17 | O[C@H](CN1c2ccccc2N(Cc2cccc(OC(F)(F)F)c2)C[C@H]1c1ccc(F)cc1)C(F)(F)F [Example 52] |  | 6.17 | 
18 | Cc1ccc([C@@H]2CN(Cc3cccc(OC(F)(F)F)c3)c3ccccc3N2C[C@@H](O)C(F)(F)F)cc1 [Example 53] |  | 7.25 | 
19 | COc1ccc([C@@H]2CN(Cc3cccc(OC(F)(F)F)c3)c3ccccc3N2C[C@@H](O)C(F)(F)F)cc1 [Example 54] |  | 7.16 | 
20 | O[C@H](CN1c2ccccc2N(C2C=Cc3ccccc32)CC1c1cccc(OC(F)(F)C(F)F)c1)C(F)(F)F (stereo partly drawn) [Example 56, (2R)-3(4-(1H-inden-1-yl))-2-(3-(1,1,2,2,- tetrafluoroethoxy)phenyl)-3,4-dihydroquinoxalin-1(2H)-yl-1,1,1-trifluoropropan-2-ol] |  | 7.96 | 
21 | O[C@H](CN1c2ccccc2N(C2CCCc3ccccc32)CC1c1cccc(C(F)(F)F)c1)C(F)(F)F (stereo partly drawn) [Example 57, (2R)-1,1,1-trifluoro-3(4-(1,2,3,4-tetrahydronaphthalen-1-yl)-2-(3-trifluoromethyl)phenyl)-3,4-dihydroquinoxalin-1(2H)-yl-propan-2-ol] |  | 7.92 | 
22 | O[C@H](CN1c2ccc(F)cc2N(Cc2cccc(OC(F)(F)F)c2)CC1c1cccc(OC(F)F)c1)C(F)(F)F (stereo partly shown) [Example 58] |  |  | pIC50 [3]: 7.80
23 | CC(C)(O)c1ccc(C2CN(Cc3cccc(OC(F)(F)F)c3)c3ccccc3N2C[C@@H](O)C(F)(F)F)cc1 (stereo partly shown) [Example 59] |  |  | pIC50 [3]: 7.62
24 | O[C@H](CN1c2ccccc2N(Cc2ccnc(N3CCOCC3)c2)C[C@H]1c1cccc(C(F)(F)F)c1)C(F)(F)F [Example 62] |  |  | pIC50 (CETP [2]; Table 2, read-out: IC50 SPA): 6.49
25 | O[C@H](CN1c2ccccc2N(Cc2ncccc2N2CCOCC2)C[C@H]1c1cccc(C(F)(F)F)c1)C(F)(F)F [Example 63] |  |  | pIC50 (CETP [2]; Table 2, read-out: IC50 SPA): 5.80
26 | O[C@H](CN1c2ccccc2N(Cc2cccc(OC(F)F)c2)C[C@H]1c1cccc(C(F)(F)F)c1)C(F)(F)F [Example 64] |  |  | pIC50 (CETP [2]; Table 2, read-out: IC50 SPA): 7.80
27 | O[C@H](CN1c2c(ccc(F)c2F)N(Cc2cccc(OC(F)(F)F)c2)CC1c1cccc(C(F)(F)F)c1)C(F)(F)F (stereo partly shown) [Example 65] |  |  | pIC50 (CETP [2]; Table 2, read-out: IC50 SPA): 6.80
28 | O[C@H](CN1c2ccccc2N(CC2=CCCCC2)C[C@H]1c1cccc(OC(F)(F)F)c1)C(F)(F)F [Example 66] |  |  | pIC50 (CETP [2]; Table 2, read-out: IC50 SPA): 8.10
29 | O[C@H](CN1c2ccccc2N(CC2CCOCC2)C[C@H]1c1cccc(OC(F)(F)F)c1)C(F)(F)F [Example 67] |  |  | pIC50 (CETP [2]; Table 2, read-out: IC50 SPA): 7.54
30 | O[C@H](CN1c2ccccc2N(Cc2cccc(OC(F)(F)F)c2)CC1c1ccc(-c2ccccc2)cc1)C(F)(F)F (stereo partly shown) [Example 68] |  |  | pIC50 (CETP [2]; Table 2, read-out: IC50 SPA): 7.60
31 | O[C@H](CN1c2ccccc2N(Cc2cccc(OC(F)(F)F)c2)CC1c1cccc(-c2ccccc2)c1)C(F)(F)F (stereo partly shown) [Example 69] |  |  | pIC50 (CETP [2]; Table 2, read-out: IC50 SPA): 6.79

From patent US9126976B2 (Merck Sharp & Dohme Corp., priority 2011, dated 2015)
